Test results published in patent US20130123358A1, “Metabolic Benefits to Butyrate as a Chronic Diet Supplement” (priority 2009, published 2013).

Tested on: C57BL/6J mice on high fat diet
Test: Energy metabolism and body composition in diet-induced obesity, butyrate started with HFD
Type: in vivo, mouse
Protocol: Male C57BL/6J (4 weeks in age) and ob/ob mice (4 weeks in age) were purchased from the Jackson Laboratory (Bar Harbor, Me.). After one week quarantine, the C57BL/6J mice were fed on the high fat diet (HFD, D12331, Research Diets, New Brunswick, N.J.), which contains 58% calories in fat. The ob/ob mice were fed on Chow diet (5001, Lab Diet) that contains 13.4% calories in fat. All of the mice were housed in the animal facility with a 12:12-h light-dark cycle and constant temperature (22-24° C.). The mice were free to access water and diet. All procedures were performed in accordance with National Institute of Health guidelines for the care and use of animals and approved by the Institute Animal Care and Use Committee at the Pennington Biomedical Research Center.
Sodium butyrate was administrated through dietary supplementation. Sodium butyrate (#303410, Sigma) was incorporated into the HFD evenly through blending the diet and sodium butyrate together at 400 rpm in a food processor. Sodium butyrate (50 g) was used in 1 kg diet to reach a dose of 5% w/w. The sodium butyrate containing diet was pelleted and stored in a −20° C. freezer. Trichostatin A (TSA) (T-1052, A.G. Scientific Inc. San Diego, Calif.) was dissolved in DMSO, and diluted in 0.9% saline at 2:98 ratio. The TSA solution (200 ul) was administrated by intra-peritoneal (i.p.) injection to reach a dose of […]. The control mice were administrated with the same volume of vehicle. 50 ml of tributyrin (#113026, Sigma) was incorporated into one kilogram of Chow diet in powder to reach a dose of 5% w/w in mice.
Body composition was measured using quantitative nuclear magnetic resonance (NMR) as previously described (15). In the test, a conscious and unrestrained mouse was placed in a small tube one at a time and individually tested using a Brucker model mq10 NMR analyzer (Brucker, Canada, Milton ON, Canada). The fat and lean mass were recorded within 1 min. Measurements were made in triplicate for each mouse.
Energy expenditure, respiratory exchange ratio (RER), spontaneous physical movement, and food intake were measured simultaneously for each mouse with the Comprehensive Laboratory Animal Monitoring System (Columbus Instruments, Columbus, Ohio) as described previously (15). The temperature in the metabolic chamber was 24° C. The mice were housed individually in the metabolic chamber. After 48 h of adaptation, the data were recorded for all parameters and used in analysis of the energy metabolism.
Butyrate was initially tested for prevention of dietary obesity. In the diet-induced obesity model, the butyrate supplementation started at the beginning of high fat diet (HFD) feeding. The plain HFD was used in the control group. Calorie intake was monitored four times in the first ten weeks. After normalization with body weight, the calorie intake was reduced with the increase in age.
Energy expenditure was examined in C57BL/6J mice using the metabolic chamber at the first week and the tenth week on HFD (16 weeks in age). In this study, sodium butyrate was used at 5% w/w in HFD. […] Food intake was monitored daily for 5 days at each time point. Average daily food intake (g) was converted into K calorie and normalized with body weight (kg) and 24 hours. […] FIG. 1E illustrates the body weight of the mice over 16 weeks. FIG. 1F illustrates the body fat content as determined by NMR expressed as a percentage of body weight. FIG. 1G illustrates the body muscle content expressed as a percentage of body weight. […] Feces were collected in the cages during a 24 hr period on HFD at 12 weeks, and the total lipids were extracted and quantified (P>0.05, n=5). […] The frequency of horizontal movement was shown for day and night time at 10 wks on HFD. For FIGS. 1A-1D and 1I, the number of mice was 8 in both the control or butyrate groups. For FIGS. 1E-1G, the number of mice was 10 in both the control or butyrate group. Values given in FIGS. 1A-1I are the mean±SE. *P<0.05, **P<0.001 by Student's t test. […]

[1] = butyrate 5% w/w in HFD vs control, metabolic chamber, weeks 1 and 10
[2] = butyrate 5% w/w in HFD, NMR, change during 16 weeks

CCCC(=O)[O-].[Na+] [sodium butyrate]
toxicity (by food intake and physical activity) (butyrate 5% w/w in HFD): no toxicity was observed
calorie intake (butyrate 5% w/w in HFD vs HFD control, first ten weeks): significantly higher at all of the time points
body length (mouse growth) (butyrate 5% w/w in HFD vs control): identical between the two groups
spontaneous physical activity (butyrate 5% w/w in HFD vs control, 10 wks on HFD, day and night): not reduced
energy expenditure [1]: elevated at the night time
oxygen consumption [1]: elevated at the night time
respiratory exchange ratio (RER) (butyrate 5% w/w in HFD vs control, weeks 1 and 10): reduced during the day and night time
fat content (adiposity) [2]: not significantly changed
lean mass [2]: not significantly changed
body weight (butyrate 5% w/w in HFD, change during 16 weeks): not significantly changed
body fat content (butyrate 5% w/w in HFD, without a reduction in food intake): 10%
hepatic steatosis (mice on high fat diet with SB, sixteen weeks): reduced
